Measured values reported in patent US11173173B2, “Methods for treating chemoresistant cancer-initiating cells” (UNIVERSITY OF CONNECTICUT, priority 2015, dated 2021).

Legend:
[1] = tested on: BM cells isolated from leukemic Pten:β-cat^Act double mutants (LSCs, HSPCs); test: In vitro treatment of BM cells from leukemic mice, flow cytometry for LSCs and HSPCs; assay type: cell-based, mouse; details: 11, 33 or 100 nM, 72 hours
Procedure: Doxorubicin, 0105375, and thioguanosine were added to 11, 33 or 100 nM and cultured for 72 hours and analyzed by flow cytometry for LSCs (a) and HSPCs (b) as in FIG. 1. Fold change before and after culture for each population is indicated relative to equivalent vehicle control concentrations.
Bone marrow cells from leukemic mice at 8 weeks post-induction were cultured overnight at 5-20×10^4 cells per well in 96-well U-bottom tissue culture plates (Becton, Dickinson and Company; Cat. No. 353077) in HSC expansion media in low O2 conditions as previously described (Perry, J. M. et al. Cooperation between both Wnt/{beta}-catenin and PTEN/PI3K/Akt signaling promotes primitive hematopoietic stem cell self-renewal and expansion. Genes Dev 25, 1928-1942 (2011)). Doxorubicin (Sigma; D1515), 0105375 ((S)-N-(2-bromobenzyl)-N-(1-hydroxy-3-phenylpropan-2-yl)ethenesulfonamide, University of Kansas CMLD compound), or Thioguanosine was mixed with HSC expansion media and added to the cultures to obtain final concentrations of 11, 33, 100 nM. Equivalent amounts of DMSO alone (vehicle control) were added to parallel cultures for comparison. Half-media changes were performed approximately every 24 hrs. Cultures were analyzed after 72 hrs exposure to the indicated drug.

[2] = tested on: T-ALL blast cells, LSCs and HSPCs of leukemic Pten:β-cat^Act mice; test: Flow cytometry of BM of treated leukemic mice (blast cells, LSCs, HSPCs); assay type: in vivo, mouse; details: 10 days post-treatment
Procedure: Leukemic mice were treated with vehicle, chemotherapy, [Low]DXR or chemotherapy+[Low]DXR as described in FIG. 3a. a-c, At 10 days post-treatment, BM was analyzed by flow cytometry to determine frequency of blast cells (a), LSCs (b) and HSPCs (c). Shown are representative plots. d, Average frequency±SD of each population from a-c (n≥6 per group). e, Limiting-dilution assays to determine CRU frequency were performed on blast cells and LSCs sorted from chemotherapy treated leukemic mice and on HSPCs sorted from [Low]DXR treated mice. Engraftment 1% blast cells) was determined in NSG recipients at 10-12 weeks post-transplant.
Whole bone marrow was isolated from uninduced HSC-SCL-Cre^+ Pten^fx/fx βcat^fx(Exon3)/+ (Pten:β-cat^Act) mice and combined with an equal portion of Cre negative bone marrow from a littermate and transplanted into irradiated (10 Gy) B6.SJL-Ptprc^a Pepc^b/BoyJ (Ptprc) recipients.
(§1) Chemotherapy consisted of Nelarabine (Selleck) and Dexamethasone (BioVision) administered daily for 5 days consecutively. 43.4 mg/ml Nelarabine was administered intravenously via the tail vain according to the formula: Body Weight (g)×5=volume to inject (μl), which yielded 217 mg/kg. 2.5 mg/ml Dexamethasone was injected intraperitoneally according to the formula: Body Weight (g)×4=volume to inject (μl), yielding 10 mg/kg. […] [Low]NanoDXR (also referred to as [Low]NanoDoxo throughout) treatment used doxorubicin nanoparticles as described in International Patent Publication WO 2015/054269 (incorporated by reference in its entirety) administered as a single IV injection once per week on day 1 relative to above treatments using 0.8 mg/kg. Maintenance [Low]NanoDXR consisted of once per week injections of 0.4 mg/kg. Groups combining Nelarabine with Doxorubicin used a single injection containing both drugs. All drugs were solubilized in 45% (2-Hydroxypropyl)-β-cyclodextrin (HBC).
Cells were collected from bone marrow (femur and tibia), spleen, peripheral blood, and thymus. For cell surface phenotyping, a lineage cocktail (Lin) was used including CD3 (for HSPC but not LSC analysis), CD4, CD8, Mac-1, Gr1, B220, IgM, and Ter119 (eBioscience, San Diego, Calif.). Monoclonal antibodies against CD3 (separate fluorophore for LSC analysis), Sca-1, c-Kit, CD45.1, and CD45.2 were also used where indicated. Cell sorting and analysis were performed using an inFlux (BD), MoFlo (Dako, Ft. Collins, Colo.) and/or CyAn ADP (Dako, Ft. Collins, Colo.). Data analysis was performed using FlowJo software (Ashland, Oreg.).

[3] = tested on: leukemic Pten:β-cat^Act (T-ALL) mice; test: Long-term survival of treated leukemic mice; assay type: in vivo, mouse; details: single treatment cycle, no transplantation
Procedure: as §1

COc1cccc2c1C(=O)c1c(O)c3c(c(O)c1C2=O)C[C@@](O)(C(=O)CO)C[C@@H]3O[C@H]1C[C@H](N)[C@H](O)[C@H](C)O1 [DXR, doxorubicin]
HSPCs after culture, relative to vehicle [1]: not HSPCs
LSCs after culture, relative to vehicle [1]: significantly reduced LSCs
LSC reduction, free DXR 5 doses of 0.15 μg/g ([2]; 5 daily injections 0.15 μg/g): ineffective
HSPCs in BM vs vehicle ([2]; [Low]DXR 0.5 mg/kg daily x5): allowed significant recovery of HSPCs
LSCs in BM vs vehicle ([2]; [Low]DXR 0.5 mg/kg daily x5): significantly reduced LSCs compared to vehicle
blast cells in BM vs vehicle ([2]; [Low]DXR 0.5 mg/kg daily x5): did not significantly reduce blast cells
blast cells in BM, [Low]DXR in combination with dexamethasone ([2]; [Low]DXR with Dexa.): does not act as a traditional chemotherapeutic
blast cells in BM, clinical equivalent (normal) dose DXR ([2]; normal dose DXR (8x higher than [Low]) with Dexa.): acted similar to chemotherapy in their reduction
survival of treated leukemic mice [3]: only minor and insignificant improvement
